From patent US12612410B2 (CHILDREN'S HOSPITAL MEDICAL CENTER, priority 2020, dated 2026)

target: T1, FLT3 ITD, D835V (Homo sapiens, UniProt P36888, D835V, form not given); test: DiscoverX KINOMEscan competition binding, FLT3 ITD, D835V
T1 construct: fused on or other part: DNA tag for qPCR detection (T7 phage fusion or DNA-tagged protein from HEK-293 cells)
T1 sequence (P36888 1-993 D835V): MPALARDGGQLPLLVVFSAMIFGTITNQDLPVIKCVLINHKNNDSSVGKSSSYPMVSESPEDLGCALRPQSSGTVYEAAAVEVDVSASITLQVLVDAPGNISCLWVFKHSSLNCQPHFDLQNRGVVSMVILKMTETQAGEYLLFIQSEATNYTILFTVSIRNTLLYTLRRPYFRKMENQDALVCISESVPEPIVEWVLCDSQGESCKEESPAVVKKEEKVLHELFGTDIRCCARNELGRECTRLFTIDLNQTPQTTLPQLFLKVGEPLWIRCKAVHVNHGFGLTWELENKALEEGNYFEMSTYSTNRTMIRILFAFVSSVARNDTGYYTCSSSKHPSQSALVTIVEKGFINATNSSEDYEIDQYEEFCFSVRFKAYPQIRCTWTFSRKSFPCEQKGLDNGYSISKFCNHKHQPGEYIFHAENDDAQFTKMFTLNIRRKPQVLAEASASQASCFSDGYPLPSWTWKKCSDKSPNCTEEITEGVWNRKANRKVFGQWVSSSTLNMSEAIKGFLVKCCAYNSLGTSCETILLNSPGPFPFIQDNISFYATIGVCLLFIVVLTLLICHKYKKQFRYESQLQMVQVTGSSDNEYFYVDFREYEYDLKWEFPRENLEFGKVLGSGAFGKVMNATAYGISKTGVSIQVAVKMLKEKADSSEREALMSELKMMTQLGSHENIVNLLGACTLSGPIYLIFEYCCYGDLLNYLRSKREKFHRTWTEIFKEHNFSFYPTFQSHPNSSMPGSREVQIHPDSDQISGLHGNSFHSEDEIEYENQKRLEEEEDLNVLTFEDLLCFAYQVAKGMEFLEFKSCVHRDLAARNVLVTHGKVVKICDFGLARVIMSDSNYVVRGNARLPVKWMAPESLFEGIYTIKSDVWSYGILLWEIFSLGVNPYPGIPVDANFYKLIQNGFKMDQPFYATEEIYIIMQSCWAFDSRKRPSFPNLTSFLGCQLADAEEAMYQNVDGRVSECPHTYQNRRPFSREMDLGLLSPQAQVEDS
From the text: Kinase binding data were obtained for various exemplary compounds prepared according to Examples 1-24 using the DiscoverX KINOMVIEscan® active site-directed competition binding site-directed assay protocol described below. […] As a result, the data report thermodynamic interaction affinities (Kd values), rather than IC50 values that are dependent on ATP concentrations. The assay uses a DNA-tagged version of the protein kinase, and an immobilized ligand bound to a solid support. Compounds that directly or indirectly prevent kinase binding to the immobilized ligand reduce the amount of kinase captured on the solid support, which is detected using an ultra-sensitive qPCR method. Affinity constants reported from the assay have been reported to be independent of the immobilized ligand used that is coupled to the solid support (See supplemental information in Fabian, M. A. et. al., (2005) Nat. Biotechnol. 23, 329-336; Wodicka, L. M. et. al., (2010) Chem. Biol. 17, 1241-1249.)
Kinase-tagged T7 phage strains were prepared in an E. coli host derived from the BL21 strain. E. coli were grown to log-phase and infected with T7 phage and incubated with shaking at 32° C. until lysis. The lysates were centrifuged and filtered to remove cell debris. The remaining kinases were produced in HEK-293 cells and subsequently tagged with DNA for qPCR detection. Streptavidin-coated magnetic beads were treated with biotinylated small molecule ligands for 30 minutes at room temperature to generate affinity resins for kinase assays. The liganded beads were blocked with excess biotin and washed with blocking buffer (SeaBlock (Pierce), 1% BSA, 0.05% Tween 20, 1 mM DTT) to remove unbound ligand and to reduce non-specific binding. Binding reactions were assembled by combining kinases, liganded affinity beads, and test compounds in 1× binding buffer (20% SeaBlock, 0.17×PBS, 0.05% Tween 20, 6 mM DTT). Test compounds were prepared as 111× stocks in 100% DMSO. Kds were determined using an 11-point 3-fold compound dilution series with three DMSO control points. All compounds for Kd measurements are distributed by acoustic transfer (non-contact dispensing) in 100% DMSO. The compounds were then diluted directly into the assays such that the final concentration of DMSO was 0.9%. All reactions were performed in polypropylene 384-well plates. Each was a final volume of 0.02 mL. The assay plates were incubated at room temperature with shaking for 1 hour and the affinity beads were washed with wash buffer (1×PBS, 0.05% Tween 20). The beads were then re-suspended in elution buffer (1×PBS, 0.05% Tween 20, 0.5 μM nonbiotinylated affinity ligand) and incubated at room temperature with shaking for 30 minutes. The kinase concentration in the eluates was measured by qPCR.
Binding constants (Kds) were calculated with a standard dose-response curve using the Hill equation. The Hill Slope was set to −1. Curves were fitted using a non-linear least square fit with the Levenberg-Marquardt algorithm.

| SMILES | Kd |
| --- | --- |
| FC(F)c1cn2c(-c3cccc(N[C@H]4CNC[C@@H]4F)n3)cnc2cn1 [Compound 16, 6-(6-(difluoromethyl)imidazo[1,2-a]pyrazin-3-yl)-N-((3S,4S)-4-fluoropyrrolidin-3-yl)pyridin-2-amine] | 6 pM |
| FC(F)c1cn2c(-c3cccc(N[C@H]4CNCC[C@@H]4F)n3)cnc2cn1 [Compound 25, 6-(6-(difluoromethyl)imidazo[1,2-a]pyrazin-3-yl)-N-((3S,4S)-4-fluoropiperidin-3-yl)pyridin-2-amine] | 9 pM |
| CC(C)(O)c1cn2c(-c3cccc(N[C@H]4CNCC[C@@H]4F)n3)cnc2cn1 [Compound 31, 2-(3-(6-(((3S,4S)-4-fluoropiperidin-3-yl)amino)pyridin-2-yl)imidazo[1,2-a]pyrazin-6-yl)propan-2-ol] | 44 pM |
| FC(F)(F)COc1cn2c(-c3cccc(N[C@@H]4CCNC4)n3)cnc2cn1 [Compound 38, (R)-N-(pyrrolidin-3-yl)-6-(6-(2,2,2-trifluoroethoxy)imidazo[1,2-a]pyrazin-3-yl)pyridin-2-amine] | 26 pM |
| F[C@H]1CNC[C@@H]1Nc1cccc(-c2cnc3cnc(C4CC4)cn23)n1 [Compound 50, 6-(6-cyclopropylimidazo[1,2-a]pyrazin-3-yl)-N-((3S,4S)-4-fluoropyrrolidin-3-yl)pyridin-2-amine] | 3 pM |
| Cn1cc(-c2cn3c(-c4cccc(N[C@H]5CNC[C@@H]5F)n4)cnc3cn2)cn1 [Compound 52, N-((3S,4S)-4-fluoropyrrolidin-3-yl)-6-(6-(1-methyl-1H-pyrazol-4-yl)imidazo[1,2-a]pyrazin-3-yl)pyridin-2-amine] | 3 pM |

Further lines, results first:

| Kd | SMILES |
| --- | --- |
| 3 pM | CC1(c2cn3c(-c4cccc(N[C@H]5CNC[C@@H]5F)n4)cnc3cn2)CC1 [Compound 1, N-((3S,4S)-4-fluoropyrrolidin-3-yl)-6-(6-(1-methylcyclopropyl)imidazo[1,2-a]pyrazin-3-yl)pyridin-2-amine] |
| 4 pM | CC1(c2cn3c(-c4cccc(N[C@@H]5CCNC5)n4)cnc3cn2)CC1 [Compound 3, (R)-6-(6-(1-methylcyclopropyl)imidazo[1,2-a]pyrazin-3-yl)-N-(pyrrolidin-3-yl)pyridin-2-amine] |
| 5 pM | CC1(c2cn3c(-c4cccc(N[C@H]5CNCC56CC6)n4)cnc3cn2)CC1 [Compound 5, (R)-N-(6-(6-(1-methylcyclopropyl)imidazo[1,2-a]pyrazin-3-yl)pyridin-2-yl)-5-azaspiro[2.4]heptan-7-amine] |
| 11 pM | FC(F)(F)C1(c2cn3c(-c4cccc(N[C@@H]5CCNC5)n4)cnc3cn2)CC1 [Compound 10, (R)-N-(pyrrolidin-3-yl)-6-(6-(1-(trifluoromethyl)cyclopropyl)imidazo[1,2-a]pyrazin-3-yl)pyridin-2-amine] |
| 140 pM | CC(C)(O)c1cn2c(-c3cccc(N[C@@H]4CCCNC4)n3)cnc2cn1 [Compound 30, (R)-2-(3-(6-(piperidin-3-ylamino)pyridin-2-yl)imidazo[1,2-a]pyrazin-6-yl)propan-2-ol] |
